Data as given in patent US4644000A, “Microbicidal agents containing 2-(1H-pyrazol-1-yl)-4-(3H)-quinazolinones” (Bayer Aktiengesellschaft, priority 1984, dated 1987).
Values after ≈ are worked out from the molar mass of the structure shown.

Assays:
Sclerophoma pityophila = assay: MIC in beerwort/peptone agar, Sclerophoma pityophila; assay type: cell-based; conditions: 28° C., 60 to 70% relative humidity, 2 weeks; for MIC: Sydowia polyspora, 336 h
Description: (§1) Active compounds according to the invention are added in concentrations of 0.1 mg/1 to 5,000 mg/1 to an agar prepared from beerwort and peptone. After storage at 28° C. and 60 to 70% relative atmospheric humidity for 2 weeks, the MIC is determined. The MIC is the lowest concentration of active compound at which no growth at all by the species of microbes used takes place, and is given in Table 1.

Penicillium glaucum = assay: MIC in beerwort/peptone agar, Penicillium glaucum; assay type: cell-based; conditions: 28° C., 60 to 70% relative humidity, 2 weeks; for MIC: Penicillium, 336 h
Description: as §1

Chaetomium globosum = assay: MIC in beerwort/peptone agar, Chaetomium globosum; assay type: cell-based; conditions: 28° C., 60 to 70% relative humidity, 2 weeks; for MIC: Chaetomium globosum, 336 h
Description: as §1

Coniophora puteana = assay: MIC in beerwort/peptone agar, Coniophora puteana; assay type: cell-based; conditions: 28° C., 60 to 70% relative humidity, 2 weeks; for MIC: Coniophora puteana, 336 h
Description: as §1

Lentinus tigrinus = assay: MIC in beerwort/peptone agar, Lentinus tigrinus; assay type: cell-based; conditions: 28° C., 60 to 70% relative humidity, 2 weeks; for MIC: Lentinus tigrinus, 336 h
Description: as §1

Polyporus versicolor = assay: MIC in beerwort/peptone agar, Polyporus versicolor; assay type: cell-based; conditions: 28° C., 60 to 70% relative humidity, 2 weeks; for MIC: Trametes versicolor, 336 h
Description: as §1

Aureobasidium pullulans = assay: MIC in beerwort/peptone agar, Aureobasidium pullulans; assay type: cell-based; conditions: 28° C., 60 to 70% relative humidity, 2 weeks; for MIC: Aureobasidium pullulans, 336 h
Description: as §1

Aspergillus niger = assay: MIC in beerwort/peptone agar, Aspergillus niger; assay type: cell-based; conditions: 28° C., 60 to 70% relative humidity, 2 weeks; for MIC: Aspergillus niger, 336 h
Description: as §1

Trichoderma viride = assay: MIC in beerwort/peptone agar, Trichoderma viride; assay type: cell-based; conditions: 28° C., 60 to 70% relative humidity, 2 weeks; for MIC: Trichoderma viride, 336 h
Description: as §1

Alternaria tenuis = assay: MIC in beerwort/peptone agar, Alternaria tenuis; assay type: cell-based; conditions: 28° C., 60 to 70% relative humidity, 2 weeks; for MIC: Alternaria alternata, 336 h
Description: as §1

slime organisms = assay: MIC against slime organisms in Allens nutrient solution; assay type: cell-based; conditions: 504 h, about 10^6 germs/ml, 3 weeks at room temperature
Description: Compounds according to the invention are used in concentrations of in each case 0.1 to 100 mg/l in Allens nutrient solution (Arch. Mikrobiol. 17, 34 to 53 (1952)), which contains, in 4 l of sterile water, 0.2 g of ammonium chloride, 4.0 g of sodium nitrate, 1.0 g of dipotassium hydrogen phosphate, 0.2 g of calcium chloride, 2.05 g of magnesium sulphate, 0.02 g of iron chloride and 1% of caprolactam, dissolved in a little acetone. Shortly beforehand, the nutrient solutions are infected with slime organisms (about 10^6 germs/ml), which have been isolated from the spinning water circulations used in the production of polyamide. Nutrient solutions which contain the minimum inhibitory concentration (MIC) or higher concentrations of active compound are still completely clear after culture for 3 weeks at room temperature, that is to say the pronounced reproduction of the microbes and slime formation noticeable after 3 to 4 days in nutrient solutions containing no active compounds are absent.

[1] = tested on: microbes (bacteria, yeasts and moulds); assay: Preservation of cooling lubricant use dilutions; conditions: 3-5% strength use dilutions, contaminated each day for 3 months; 3% preservative in cooling lubricant
Description: 3% of a preservative composed of 90% of benzyl alcohol mono(poly)hemiformaland 10% of active compound E is added to a cooling lubricant based on mineral oil.
3-5% strength use dilutions of the cooling lubricant are contaminated massively each day for 3 months with microbes (bacteria, yeasts and moulds) isolated from microbially decayed cooling lubricant use dilutions.

fungi = assay: Mould resistance of PVA emulsion paint films (paint fungicide test, Report 219 Defense Standards Laboratories); conditions: 28° to 30° C., 90 to 95% relative humidity, evaluated after 3 weeks; active compound E: even after ageing
Description: Testing is carried out in accordance with the method in Report 219 of the Defense Standards Laboratories Maribyrnong/Australia as follows: a smooth card is coated on both sides with the paint to be tested and is dried at room temperature for 8 days. For ageing, part of the paint film is kept in running water of 24° for 24 hours, or aerated with fresh air of 40° to 60° C. for 8 days, or subjected to a dry Xenon test for 110 hours. Pieces of 5×5 cm cut out from the samples thus prepared are placed individually on a glucose nutrient medium in Petri dishes and contaminated with a spore suspension of the following fungi: Aspergillus niger, Aureobasidium pullulans, Alternaria tenuis, Penicillium citrinum, Stachybotrys atra, Paecilomyces varioti, Cladosporium herbarum, Aspergillus ustus and Aspergillus flavus.
The contaminated dishes are stored at 28° to 30° C. and 90 to 95% relative atmospheric humidity, and are evaluated after 3 weeks. Paint films are regarded as mould-resistant if the samples remain free from fungi after these tests.
A commercially available emulsion paint based on PVA is tested for mould resistance by the test method described above.

[2] = Water solubility of potassium salt; assay type: physicochemical
Description: 12.3 g (0.05 mole) of 2-(1H-pyrazol-1-yl)-6-chloro-4(3H)-quinazolinone (=compound from Example 4) are stirred in 1 liter of water with 45 ml of 1 N KOH for 1 hour. Residues of the starting material which have remained undissolved are removed, the clear solution is evaporated in vacuo and the solid residue is dried at 110° C. to give 12.2 g of water-soluble potassium salt of the quinazolinone employed.

Compound	MIC (Sclerophoma pityophila) [µg/mL]	MIC (Penicillium glaucum) [µg/mL]	MIC (Chaetomium globosum) [µg/mL]	MIC (Coniophora puteana) [µg/mL]	MIC (Lentinus tigrinus) [µg/mL]	MIC (Polyporus versicolor) [µg/mL]	MIC (Aureobasidium pullulans) [µg/mL]	MIC (Aspergillus niger) [µg/mL]	MIC (Trichoderma viride) [µg/mL]	MIC (Alternaria tenuis) [µg/mL]	MIC (slime organisms) [µg/mL]	further results
Cc1cnn(-c2nc3ccc(Cl)cc3c(=O)[nH]2)c1 [Active compound G, 2-(4-Methyl-1H-pyrazol-1-yl)-6-chloro-4-(3H)-quinazolinone]	5 (≈ 19.2 µM)	7 (≈ 26.9 µM)	1 (≈ 3.84 µM)	1 (≈ 3.84 µM)	–	–	–	–	–	–	–	–
O=c1[nH]c(-n2cccn2)nc2ccccc12 [Active compound A, 2-(1H-Pyrazol-1-yl)-4-(3H)-quinazolinone]	20 (≈ 94.2 µM)	100 (≈ 471 µM)	100 (≈ 471 µM)	1 (≈ 4.71 µM)	20 (≈ 94.2 µM)	20 (≈ 94.2 µM)	5 (≈ 23.6 µM)	100 (≈ 471 µM)	100 (≈ 471 µM)	20 (≈ 94.2 µM)	30 (≈ 141 µM)	–
benzyl alcohol mono(poly)hemiformal	–	–	–	–	–	–	–	–	–	–	–	state of cooling lubricant use dilutions at the end of the testing period [1]: show attack by mould at the end of the testing period
O=c1[nH]c(-n2cccn2)nc2cc(Cl)ccc12 [Active compound H, 2-(1H-Pyrazol-1-yl)-7-chloro-4(3H)-quinazolinone]	–	–	–	–	–	–	–	–	–	–	100 (≈ 405 µM)	–
CCc1cnn(-c2nc3ccccc3c(=O)[nH]2)c1 [Active compound F, 2-(4-Ethyl-1H-pyrazol-1-yl)-4(3H)-quinazolinone]	50 (≈ 208 µM)	35 (≈ 146 µM)	< 20	–	20 (≈ 83.2 µM)	30 (≈ 125 µM)	50 (≈ 208 µM)	50 (≈ 208 µM)	50 (≈ 208 µM)	–	30 (≈ 125 µM)	–
CN(C)C(=S)SSC(=S)N(C)C [tetramethylthiuram disulphide, reference compound]	–	–	–	–	–	–	–	–	–	–	–	content of fungicide at which PVA emulsion paint films are mould-resistant (fungi): ≥ 4%
Cc1ccn(-c2nc3ccccc3c(=O)[nH]2)n1 [Active compound C, 2-(3-Methyl-1H-pyrazol-1-yl)-4(3H)-quinazolinone]	10 (≈ 44.2 µM)	75 (≈ 332 µM)	5 (≈ 22.1 µM)	< 0.1	20 (≈ 88.4 µM)	35 (≈ 155 µM)	50 (≈ 221 µM)	35 (≈ 155 µM)	50 (≈ 221 µM)	15 (≈ 66.3 µM)	100 (≈ 442 µM)	–
O=c1[nH]c(-n2cccn2)nc2ccc(Cl)cc12 [Example 32, 2-(1H-pyrazol-1-yl)-6-chloro-4(3H)-quinazolinone]	–	–	–	–	–	–	–	–	–	–	–	water solubility (in words) [2]: water-soluble
Isomer mixture of 2-(3- and 5-methyl-1H-pyrazol-1-yl)-4(3H)-quinazolinone [Active compound E]	–	–	–	–	–	–	–	–	–	–	–	MIC value, Lentinus tigrinus (Lentinus tigrinus): 20 µg/mL; MIC value, Polyporus versicolor (Polyporus versicolor): 35 µg/mL; MIC value, Aureobasidium pullulans (Aureobasidium pullulans): 15 µg/mL; MIC value, Aspergillus niger (Aspergillus niger): 50 µg/mL; MIC value, Trichoderma viride (Trichoderma viride): 75 µg/mL; content of fungicide at which PVA emulsion paint films are mould-resistant (fungi): 0.5%; MIC value, Sclerophoma pityophila (Sclerophoma pityophila): 2 µg/mL; MIC value, Penicillium glaucum (Penicillium glaucum): 35 µg/mL; MIC value, Chaetomium globosum (Chaetomium globosum): 3 µg/mL; MIC value, Alternaria tenuis (Alternaria tenuis): 75 µg/mL; MIC value, Coniophora puteana (Coniophora puteana): 1 µg/mL
Cc1ccnn1-c1nc2ccccc2c(=O)[nH]1 [Active compound D, 2-(5-Methyl-1H-pyrazol-1-yl)-4(3H)-quinazolinone]	50 (≈ 221 µM)	35 (≈ 155 µM)	5 (≈ 22.1 µM)	< 0.1	20 (≈ 88.4 µM)	15 (≈ 66.3 µM)	35 (≈ 155 µM)	35 (≈ 155 µM)	50 (≈ 221 µM)	15 (≈ 66.3 µM)	75 (≈ 332 µM)	–
Cc1cnn(-c2nc3ccccc3c(=O)[nH]2)c1 [Active compound B, 2-(4-Methyl-1H-pyrazol-1-yl)-4(3H)-quinazolinone]	50 (≈ 221 µM)	7 (≈ 30.9 µM)	< 20	–	< 10	< 10	10 (≈ 44.2 µM)	50 (≈ 221 µM)	50 (≈ 221 µM)	75 (≈ 332 µM)	–	–
